Assay results from patent US20220192179A1, “BIOMIMETIC ICE-INHIBITING MATERIAL AND CRYOPRESERVATION SOLUTION COMPRISING SAME” (priority 2019, published 2022).
Peptide text beside a SMILES is read from it.

Columns and labels:
[1] = Ice recrystallization inhibition (IRI) activity, splat-freezing method; type: physicochemical; conditions: for MLGS (%) relative to that of DPBS, compared with the unbound components: 20 μL DPBS solution, same concentration
Description: The IRI activity was assessed using “splat-freezing method”, wherein a sample was dissolved and dispersed into a DPBS solution, and 10-30 μL of the resulting solution was added dropwise onto the surface of a clean silicon disk pre-cooled at -60° C. at a height of no less than 1.0 m; the solution was slowly heated to -6° C. at a speed of 10° C. ·min^−1 by using a hot-cold stage, and was annealed for 30 min at this temperature; the sizes of ice crystals were observed and recorded by using a polarizing microscope and a high-speed camera. The hot-cold stage was sealed to ensure that the internal humidity was about 50%.
The IRI activity was assessed using “splat-freezing method”, wherein a sample was dissolved and dispersed into a DPBS solution, and 10-30 μL of the resultant solution was added dropwise onto the surface of a clean silicon disk precooled at −60° C. at a height of no less than 1.0 m; the solution was slowly heated to −6° C. at a speed of 10° C./min by using a hot-cold stage, and was annealed for 30 min at this temperature; the sizes of ice crystals were observed and recorded by using a polarizing microscope and a high-speed camera. The hot-cold stage was sealed to ensure that the internal humidity was about 50%.
The ice recrystallization inhibition (IRI) activity was assessed using “splat-freezing method”, wherein the two PVAs were separately dissolved and dispersed into DPBS solutions, and 10-30 μL of the resulting solution was added dropwise onto the surface of a clean silicon disk pre-cooled at −60° C. at a height of no less than 1.0 m; the solution was slowly heated to −6° C. at a speed of 10° C.·min^−1 by using a hot-cold stage, and was annealed for 30 min at this temperature; the sizes of ice crystals were observed and recorded by using a polarizing microscope and a high-speed camera. The hot-cold stage was sealed to ensure that the internal humidity was about 50%.

[2] = Ice topography (DIS) observation and thermal hysteresis (TH) measurement, nanoliter osmometer; type: physicochemical; conditions: deionized aqueous solution; for modification effect on the topography of ice crystals (DIS observation): supercooling degree of −0.1 °C; for thermal hysteresis (TH): nanoliter osmometer
Description: DIS observation and TH measurement were performed by using a nanoliter osmometer. A capillary was first melt with the outer flame of a alcohol burner, and simultaneously stretched to produce a capillary with a very fine pore size, and the capillary was then linked to a microsyringe; an immersion oil with higher viscosity was injected into a disk with micron-sized holes, and an aqueous solution in which the material was dissolved was injected into the microholes by using a microsyringe; the droplet was quickly frozen by regulating the temperature, and then slowly heated to give a single crystal ice, the single crystal ice was slowly cooled at the precision of 0.01° C., and the DIS observation and TH test were performed by using a microscope provided with a high-speed camera.

Compound: GDL-L-Ser
- MLGS (%) relative to that of DPBS, compared with the unbound components [1]: obviously smaller than those of the DPBS solutions of GDL and amino acids at the same concentration

Compound: GDL-L-Val
- MLGS (%) relative to that of DPBS, compared with the unbound components [1]: obviously smaller than those of the DPBS solutions of GDL and amino acids at the same concentration

Compound: NC(=O)CN(CCC(=O)O)C(=O)CN(CCC(=O)O)C(=O)CN(CCC(=O)O)C(=O)CN(CCC(=O)O)C(=O)CN(CCC(=O)O)C(=O)CNCCC(=O)O [peptoid where R was —CH2CH2COOH]
- modification effect on the topography of ice crystals (DIS observation) [2]: no modification effect on the topography of ice crystals

Compound: CNCC(=O)N(C)CC(=O)N(C)CC(=O)N(C)CC(=O)N(C)CC(=O)N(C)CC(N)=O [peptoid where R was —CH3]
- thermal hysteresis (TH) [2]: no TH
- modification effect on the topography of ice crystals (DIS observation) [2]: rather obvious modification effects on the topography of ice crystals
- modification effect on the topography of ice crystals (DIS observation) ([2]; listed as compound of formula (9) where R is —CH3): excellent modification effect on the topography of ice crystals

Compound: CC(O)C(NC(=O)[C@@H](O)[C@H](O)[C@@H](O)[C@@H](O)CO)C(=O)O (stereo partly drawn) [GDL-L-Thr]
- MLGS (%) relative to that of DPBS, compared with the unbound components [1]: obviously smaller than those of the DPBS solutions of GDL and amino acids at the same concentration
- ability to inhibit the growth of ice crystals ([1]; result in words): good capability of inhibiting the growth of ice crystals
- thermal hysteresis (TH) [2]: No TH was determined
- modification effect on the topography of ice crystals (DIS observation) [2]: weak modification effect on the topography of ice crystals

Compound: CCNCC(=O)N(CC)CC(=O)N(CC)CC(=O)N(CC)CC(=O)N(CC)CC(=O)N(CC)CC(N)=O [peptoid where R was —CH2CH3]
- thermal hysteresis (TH) [2]: no TH
- modification effect on the topography of ice crystals (DIS observation) [2]: rather obvious modification effects on the topography of ice crystals
- modification effect on the topography of ice crystals (DIS observation) ([2]; listed as compound of formula (9) where R is —CH2CH3): excellent modification effect on the topography of ice crystals

Compound: C[C@@H](O)[C@H](N)C(=O)N[C@@H](CCCNC(=N)N)C(=O)O [TR, L-Thr-L-Arg] (H-Thr-Arg-OH)
- MLGS (%) relative to that of DPBS, compared with the unbound components [1]: obviously smaller than that of the DPBS solutions of arginine and threonine at the same concentration
- thermal hysteresis (TH) [2]: No TH was determined
- modification effect on the topography of ice crystals (DIS observation) [2]: weak modification effect on the topography of ice crystals
